How the values were obtained:
[1] = Lipids/surfactants in ECell: solubility and expansion in PBS (images); assay type: physicochemical; conditions: for appearance of ECell compositions containing the lipid/surfactant: 1% w/w (RGD lipids 0.1%), with and without 2.5% CAB polymer; for ECell expansion compared to the reference: LOIB:CAB:DMSO:Surfactant 66.5:2.5:30:1, PBS, reference LOIB:CAB:DMSO 67.5:2.5:30; for ECell expansion compared to the reference / shape of the depot compared to reference: 37° C.; for shape of the depot compared to reference: ECells without CAB, LOIB:GTH:DMSO:Surfactant 69:10:20:1, PBS
Description: Different surfactants were formulated in expandable (w CAB, Mn 12000) vs non-expandable (w GTH) ECell formulations in a concentration of 1% w/w. […] Gel formulations containing each surfactant were prepared in 600 mg aliquots.
Duplicates consisting of 100 μL gel depots of each ECell formulation were injected into 2 mL PBS buffer. Samples were incubated at 37° C., and images of a non-expandable vs an expandable ECell containing the same surfactant side-by-side were taken at 1.5 h and 2 days and 7 days post injection to investigate and document surfactant effects on ECell expansion.

[2] = cited from earlier work
[3] = In vitro release of antimicrobials from expanding ECells (RHPLC); assay type: physicochemical; conditions: dPBS, 37° C., FIG. 18
Description: Each formulation was loaded with antimicrobial in varying concentrations (see Table 1) and was injected as ≈100 μl into 4 ml Dulbecco's Phosphate-buffered Saline (dPBS), in a glass vial, and incubated at 37° C. in atmospheric air, only taken out when samples were collected and new dPBS was added. Sample collection proceeded by removing all dPBS possible with a pipette, weighing the expanding ECells, then saving 1 ml for analysis, returning the rest, and adding new dPBS until 4,000 mg of water was present.
At each chosen time point, 1 ml of the release medium was collected and RHPLC analysis was carried out. […] Solution A was an aqueous mixture of 5% v/v MeCN and 0.01% TFA. […] Rifamycin splits into several peaks over time, and the total AUC of all peaks were used for quantification and standard curve generation.

[4] = Solvent type and ECell expansion in PBS (visual inspection of images); assay type: physicochemical; conditions: LOIB:CAB (Mn 12000):Solvent 67.5:2.5:30, 100 μL in 2 mL PBS, 37° C., 1.5 h, 2 days, 7 days pi
Description: These ECells were prepared to study eventual surface and expansion effects of the specific solvent type on LOIB:CAB compositions. ECell formulations were prepared in 900 mg aliquots. 12 h stability at room temperature (RT) was investigated and documented in images. Only soluble formulations of appropriate viscosity were injected as gel depots into PBS (100 μL, for visual inspection). Duplicates consisting of 100 μL ECell depots of each clear formulation were injected into 2 mL PBS buffer for inspection. Samples were kept at 37° C., and images of each injected gel depot composition were recorded at 1.5 h and 2 days and 7 days post injection (pi) to investigate and document effects of solvent type on the depots.

[5] = In vitro release of MMP / gp-130 inhibitors from expanding ECells (RHPLC); assay type: physicochemical; conditions: 5 mg/g in LOIB:CAB(12 kDa):DMSO (65:5:30), dPBS, 37° C.
Description: The in vitro release profile of three inhibitor compounds were elucidated from a LOIB:CAB(12 kDa):DMSO (65:5:30) formulation. […] Loading of inhibitors were done by adding the desired concentration in mg per g of expanding ECells and stirring on a magnetic stirrer at room temperature until the solution became clear.
Each compound was loaded as 5 mg/g in the expanding ECell formulation and injected in 4 ml Dulbecco's Phosphate-buffered Saline (dPBS) as ≈100 μl, in triplicates, and incubated at 37° C. At chosen time points (see FIG. 19a), all dPBS was removed by pipetting, the expanding ECells+potentially absorbed water was weighed, and its weight noted down, 1 ml dPBS was collected for release quantification, and the remaining dPBS+fresh dPBS to a total of 4 ml (4 g) was added.
Weight data was used to generate a graph of the relative expanding ratio as a function of time (FIG. 19b), and from the 1 ml collected, RHPLC analysis was carried out. […] Solution A was an aqueous mixture of 5% v/v MeCN and 0.01% TFA.

[6] = Description: After addition of LOIB and DMSO, each ECell formulation was sonicated at 75° C. for 2 hrs and vortexed every 30th minute.

Row | Molecule | appearance of ECell compositions containing the lipid/surfactant [1] | ECell expansion compared to the reference [1] | expansion of the ECell by solvent, as judged by the eye [4] | other results
1 | CCCCCCCCCCCC(=O)O [Lauric acid] | Homogeneous | relatively similar to the reference | – | –
2 | CO[C@H]1/C=C/O[C@@]2(C)Oc3c(C)c(O)c4c(O)c(cc(O)c4c3C2=O)NC(=O)/C(C)=C\C=C\[C@H](C)[C@H](O)[C@@H](C)[C@@H](O)[C@@H](C)[C@H](OC(C)=O)[C@@H]1C [Rifamycin SV] | – | – | – | log P [2]: 4.17; in vitro release rate (comparison in words) [3]: relatively slower release rate
3 | OCc1ccccc1 [BnOH, Benzyl alcohol] | – | – | did not expand | –
4 | CN(C)C=O [DMF, Dimethyl formamide] | – | – | cause expansion of the ECell | –
5 | PEG(10)-monolaurate | Homogeneous | slightly reduced | – | –
6 | CCCCCCCC/C=C\CCCCCCCC(=O)O [Oleic acid] | – | slightly reduced | – | –
7 | CC(C)CCC[C@@H](C)[C@H]1CC[C@H]2[C@@H]3CC=C4C[C@@H](OC(=O)CCC(=O)O)CC[C@]4(C)[C@H]3CC[C@]12C [CHEMS, cholesteryl hemisuccinate] | Homogeneous | relatively similar to the reference | – | shape of the depot compared to reference [1]: slight flattening of the depot compared to reference
8 | CC1COC(=O)O1 (stereo not shown) [PC, Propylene carbonate] | – | – | did not expand | –
9 | LMT-28 | – | – | – | log P [2]: 3.71; cargo released in vitro after 42 days [5]: 10%
10 | CCCCCCCCCCCC(=O)OCC(O)CO (stereo not shown) [Monolaurin] | Homogeneous | relatively similar to the reference | – | –
11 | CCCCOC(C)=O [BuAc, Butyl acetate] | – | – | did not expand | –
12 | CNC(=O)[C@H](Cc1ccccc1)NC(=O)[C@H](CC(C)C)[C@H](CSc1cccs1)C(=O)NO [Batimastat] | – | – | – | log P [2]: 3.27
13 | O=S(=O)(CC1CS1)c1ccc(Oc2ccccc2)cc1 (stereo not shown) [SB-3CT] | – | – | – | log P [2]: 2.75; cargo released in vitro after 42 days [5]: about 5%
14 | CCO [EtOH, Ethanol] | – | – | did not expand | –
15 | C[S+](C)[O-] [DMSO, Dimethyl sulphoxide] | – | – | cause expansion of the ECell | –
16 | Tween 80 | Homogeneous | slightly reduced | – | shape of the depot compared to reference [1]: slight flattening of the depot compared to reference
17 | PEG(20)-monooleyl ether | Homogeneous | – | – | –
18 | Cellulose Acetate [Cellulose Acetate (Mn=30,000)] | – | – | – | solubility in LOIB:DMSO ECell [6]: insoluble
19 | 1,2-Dimyristoyl-rac-glycero-3-methoxypolyethylene glycol-2000 [DMG-PEG2K] | Homogeneous | slightly reduced | – | –
20 | CN1CCCC1=O [NMP, N-methyl pyrrolidone] | – | – | cause expansion of the ECell | –

— US20260174910A1, “POROUS EXPANDING BIOCOMPATIBLE SCAFFOLDS” (DANMARKS TEKNISKE UNIVERSITET, priority 2022, published 2026)
